According to US11208559B2, “Modified indigo compounds and methods of dyeing a substrate using a modified indigo compound” (VF Jeanswear LP, priority 2016, dated 2021):
Values belong to the compound of their own block, whether it stands above or below them.

Assays:
Type in all cases: physicochemical
[1] = Solubility studies in water (centrifugation, weighing of undissolved solids); details: for Highest Solubility Measured (wt. %): in water, corrected for insoluble solids, true maximum solubility not determined; for average percent solids removed: undissolved solids removed during centrifugation of aqueous solutions
Method: The solutions were prepared by adding a known amount of dye to a known amount of water and agitating the solution. Separately, each solution of known concentration was centrifuged for 30 minutes to separate out any undissolved solids. The supernatant was decanted and the remaining undissolved solids were dried at 50° C. and later weighed to determine wt. % of soluble portion.
The actual concentration was determined by centrifuging the dye solutions extensively to remove any undissolved solids. The undissolved solids were then isolated, dried, and weighed.
Note that in all instances, a true maximum solubility in water has not been determined due to the very high solubility of the compounds in water. For all compounds, the maximum solubility was corrected for the amount of insoluble solids that were isolated during centrifugation.

[2] = Dilution of stock solution into distilled water, comparison with leuco-indigo; details: for time to turn blue / convert back to indigo after dilution: 1 mL stock solution in 20 mL distilled water, no excess reducing agent
Method: The stability and visual observations comparing what occurs when an aqueous stock solution of leuco-indigo and an aqueous solution Compound 8 were obtained. The leuco-indigo stock solution was prepared using 0.2 wt. % indigo powder, 0.5 wt. % NaOH, and 0.5 wt. % sodium hydrosulfite, the solution was heated to 50-60° C. for 30 minutes, and the solution was then allowed to cool to room temperature. An aqueous solution containing 3 wt. % of Compound 8 was prepared. 1 mL of each solution was then added to 20 mL of distilled water and physical observations were made. See, Table 3.

[3] = Hydrolysis to indigo under hydrolyzing conditions
[4] = Insoluble solids filtered from stored dye solution with sodium sulfate (Test 4); details: 2 wt. % aqueous solution, 0.45 micron filter
Method: Aqueous solutions of 2 wt. % of Compound 8 were prepared with varying concentrations of sodium sulfate and then filtered through a 0.45 micron PVDF syringe filter after one day of room temperature storage. The filters were then dried at 120° C., cooled to room temperature, and weighed to quantify the amount of insoluble solids that had precipitated out of solution during storage.
In a control experiment, the weight change (−0.35%) was determined for a syringe filter that was flushed with 10 mL distilled water and then dried at 120° C.

[5] = Storage stability of aqueous dye solution at room temperature, UV-Vis spectra; details: for compound converted to indigo: room temperature, 5 day period
Method: All UV-Vis spectra were obtained using a Varian Cary 6000i UV-Vis spectrophotometer.
The stability of Compound 8 was measured by diluting samples of the compound in water to provide 0.01 and 3% wt. % solutions. The solutions were then stored at room temperature for 5 days. The UV-Vis spectra of the solution after 1, 2, and 5 days were obtained. FIGS. 3 and 11A are the UV-Vis spectra which show the robustness of the dye compound after at least 2 days of storage at room temperature at both concentrations.
The longer term stability of Compound 8 was measured by diluting a sample of the compound in water to provide a 0.01 wt. % solution containing 0.1M NaCl (aq). The solution was then stored at room temperature for 5 days. The UV-Vis spectra of the solution were obtained daily over the 5 days.
The stability of Compound 8 was measured by preparing a 0.01 wt. % aqueous solution of compound 8 in water. The solution was then stored at room temperature for 2 days. The UV-Vis spectra of the solution after 1 and 2 days were obtained. FIG. 11B are the UV-Vis spectra which show the robustness of the dye compound after at least 2 days of storage at room temperature at both concentrations.

[6] = Atmospheric steam treatment of dyed cotton skein, conversion to indigo; details: steam under atmospheric conditions for 30 minutes
Method: Cotton skeins were pretreated with 1 M NaOH (aq), dyed with a 3 wt. % aqueous solution of Compound 8, hydrolyzed using 1 M NaOH (aq), and then rinsed with water. One skein was dried at 50° C. and remains purple in color. See, the top skein in FIG. 21. The other skein was dried at 50° C. and then exposed to steam under atmospheric conditions for 30 minutes, resulting in the attainment of a blue hue. See, the botton skein in FIG. 21.

[7] = Heat treatment of dyed cotton fabric, conversion to indigo; details: 4 minutes
Method: Prepared for dye (PFD) 3×1 twill cotton fabric dyed with Compound 8 prepared by dipping in an aqueous solution containing 3 wt. % of Compound 8, padding, and drying at 50° C. The samples were then placed separately into a lab-scale tenter frame for heat treatment. See, FIG. 20 showing the dyed fabric exposed to 100° C. (left), 150° C. (middle), and 180° C. (right).

[8] = Air stability of aqueous solution, UV-Vis spectra
Method: The air stability of Compound 8 was measured by diluting of the compound in water to provide a 0.01 wt. % solution. […] The solid line represents the stability of the Compound 8 aqueous solution under atmospheric conditions. The dashed line represents the stability of the Compound 8 aqueous solution after treatment with 15 minutes of nitrogen purging of the solution, followed by storage for 1 day in a vial equipped with a rubber septum. See, FIG. 10. The UV-Vis spectra of the solutions were obtained.

[9] = Relative kinetics of degradation (hydrolysis) monitored by UV-Vis spectrophotometry; details: 0.01 wt. % with 0.1M NaCl aqueous versus 0.01 wt. % without salt, room temperature
Method: In this example, the relative kinetics of degradation for two conditions for Compound 8 were measured. One solution contained 0.01 wt. % of Compound 8 and 0.1M NaCl aqueous and the other solution contained 0.01 wt. % of Compound 8. Both solutions were stored at room temperature and the hydrolysis monitored using UV-Vis spectrophotometry. See, FIG. 13.

[10] = Stability of Compound 4 in water, UV-Vis spectra; details: 3 wt. % aqueous solution, room temperature, up to 2 days
Method: The stability of compound 4 was determined. An aqueous solution of 3 wt. % of Compound 4 was prepared at stored at room temperature for 2 days. The UV-Vis spectra for each solution were obtained prior to storage, 3 hours, 1 day, and 2 days. The solution was then diluted by a factor of 300 and the UV-Vis spectrum of FIG. 15 obtained.

[11] = 1 mL stock solution added to 20 mL distilled water

- Highest Solubility Measured (wt. %) [1]: 1.7 wt. %
- average percent solids removed [1]: about 26%
Compound: O=C1/C(=C2/C(=O)c3ccccc3N2C(=O)c2ccncc2)N(C(=O)c2ccncc2)c2ccccc21 [Compound 35]

- Observation on dilution (color) [2, 11]: blue-green solution immediately
- time to turn blue / convert back to indigo after dilution [2]: solution turned blue under 10 seconds
- time to turn blue / convert back to indigo after dilution ([2]; listed as leuco-indigo): less than 10 seconds
Compound: Oc1c(-c2[nH]c3ccccc3c2O)[nH]c2ccccc12 [Leuco-indigo, leuco-indigo]

- hydrolysis to indigo [3]: hydrolyzes to indigo
- Highest Solubility Measured (wt. %) [1]: 1.6 wt. %
- average percent solids removed [1]: about 26%
Compound: O=C1/C(=C2/C(=O)c3ccccc3N2C(=O)c2ccncc2)N(C(=O)c2ccncc2)c2ccccc21 [Compound 37]

- Fraction of dye compound removed during filtration (%) ([4]; 0.1M Na2SO4, one day at room temperature): 2.85%
- Fraction of dye compound removed during filtration (%) ([4]; 0.5M Na2SO4, one day at room temperature): −0.4%
- Fraction of dye compound removed during filtration (%) ([4]; 1M Na2SO4, one day at room temperature): 0.1%
- Highest Solubility Measured (wt. %) [1]: 40 wt. %
- average percent solids removed [1]: about 2%
- robustness of the dye compound on storage at room temperature ([5]; 0.01 and 3 wt. % solutions in water, FIGS. 3 and 11A): at least 2 days
- compound converted to indigo ([5]; 0.01 wt. % solution containing 0.1M NaCl (aq)): 9%
- compound converted to indigo ([5]; 0.01 wt. % solution in water): 41%
- robustness of the dye compound on storage at room temperature ([5]; Example 27, 0.01 wt. % aqueous solution, FIG. 11B): at least 2 days
- conversion to indigo by steam [6]: conversion to indigo
- conversion to indigo by heat ([7]; 100° C.): no conversion
- conversion to indigo by heat ([7]; 150° C.): slower conversion
- conversion to indigo by heat ([7]; 180° C.): relatively rapid conversion
- UV-Vis spectra after one day, stored under nitrogen versus atmospheric conditions ([8]; 0.01 wt. % solution in water, 1 day at 8° C.): identical
- air stability in solution ([8]; aqueous solution, storage at room temperature for 2 days): air stable
- Observation on dilution (color) [2, 11]: Dark purple solutions became lighter
- UV-Vis spectra of diluted solutions [2, 11]: superimposable - consistent with no
Compound: C[n+]1ccc(C(=O)N2/C(=C3\C(=O)c4ccccc4N3C(=O)c3cc[n+](C)cc3)C(=O)c3ccccc32)cc1 [Compound 8]
- hydrolysis rate with salt relative to without salt (factor slower) [9]: six

- stability in water compared to Compound 8 [10]: relative instability
Compound: C[n+]1cccc(C(=O)N2/C(=C3\C(=O)c4ccccc4N3C(=O)c3ccc[n+](C)c3)C(=O)c3ccccc32)c1 [Compound 4]
